Values quoted from earlier work, collected in US11291812B2, “Sinus delivery of sustained release therapeutics” (Intersect ENT, Inc., priority 2003, dated 2022).

Tested on: sinusitis
Conditions: ampicillin delivered from a poly(lactic-co-glycolic)acid (PLGA) film placed in rabbit maxillary sinus

## CC1(C)S[C@@H]2[C@H](NC(=O)[C@H](N)c3ccccc3)C(=O)N2[C@H]1C(=O)O [ampicillin]
  clinical signs of sinusitis: improved
